According to ChEMBL document CHEMBL1201862, “PubChem BioAssay data set” (2004):
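Grown in 96-well plates, cells were treated for 48 hours with each compound at five concentrations. Insufficient inhibition: endpoint recorded as highest concentration tested. GI50: concentration for 50% inhibition of growth.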 Active and inactive are the calls of the source. Rule as the data show it: active = GI50 up to about 1.1 µM and inactive = higher.

Experiments:
Assay in all cases: growth of human tumour cells (NCI), 48 h
SNB-19 = tested on: SNB-19
SF-295 = tested on: SF-295
TK-10 = tested on: TK-10
MDA-N = tested on: MDA-N
SK-MEL-28 = tested on: SK-MEL-28
UACC-257 = tested on: UACC-257
SK-OV-3 = tested on: SK-OV-3
M14 = tested on: M14
HOP-92 = tested on: HOP-92
MDA-MB-435 = tested on: MDA-MB-435
HCT-15 = tested on: HCT-15
SF-268 = tested on: SF-268
MOLT-4 = tested on: MOLT-4
MDA-MB-231 = tested on: MDA-MB-231
A498 = tested on: A498
SF-539 = tested on: SF-539
SNB-75 = tested on: SNB-75
NCI-H226 = tested on: NCI-H226
NCI/ADR-RES = tested on: NCI/ADR-RES
HT-29 = tested on: HT-29
LOX IMVI = tested on: LOX IMVI
NCI-H522 = tested on: NCI-H522
RPMI-8226 = tested on: RPMI-8226
OVCAR-3 = tested on: OVCAR-3
OVCAR-5 = tested on: OVCAR-5
Malme-3M = tested on: Malme-3M
OVCAR-4 = tested on: OVCAR-4
OVCAR-8 = tested on: OVCAR-8
786-0 = tested on: 786-0
COLO 205 = tested on: COLO 205
A549 = tested on: A549
CAKI-1 = tested on: CAKI-1
UO-31 = tested on: UO-31
SK-MEL-5 = tested on: SK-MEL-5
HCT-116 = tested on: HCT-116
KM12 = tested on: KM12
BT-549 = tested on: BT-549
IGROV-1 = tested on: IGROV-1
SN12C = tested on: SN12C
DU-145 = tested on: DU-145
RXF 393 = tested on: RXF 393
HOP-62 = tested on: HOP-62
NCI-H23 = tested on: NCI-H23
T47D = tested on: T47D
U-251 = tested on: U-251
EKVX = tested on: EKVX
NCI-H460 = tested on: NCI-H460
ACHN = tested on: ACHN
SW-620 = tested on: SW-620
MCF7 = tested on: MCF7
UACC-62 = tested on: UACC-62
CCRF-CEM = tested on: CCRF-CEM
K562 = tested on: K562
PC-3 = tested on: PC-3
HL-60 = tested on: HL-60
SK-MEL-2 = tested on: SK-MEL-2
SR = tested on: SR

Measured: GI50

N#CC(c1nc2ccccc2s1)c1nc(Cl)ncc1Br (stereo not given)
inactive: SNB-19 40.6 µM | SF-295 42.2 µM | TK-10 37.3 µM | MDA-N 36 µM | SK-MEL-28 97.9 µM | UACC-257 77.4 µM | SK-OV-3 36.1 µM | M14 44.6 µM | HOP-92 18.2 µM | MDA-MB-435 50.6 µM | SF-268 34 µM | MOLT-4 72.4 µM | MDA-MB-231 39.2 µM | A498 > 100 µM | SF-539 31.5 µM | SNB-75 23.2 µM | NCI-H226 39.5 µM | NCI/ADR-RES 30 µM | HT-29 46.5 µM | LOX IMVI 29.3 µM | NCI-H522 20.7 µM | RPMI-8226 25.4 µM | OVCAR-3 27.2 µM | OVCAR-5 > 100 µM | Malme-3M 41.4 µM | OVCAR-4 47.8 µM | OVCAR-8 30.4 µM | 786-0 30.3 µM | COLO 205 46.3 µM | A549 46.5 µM | CAKI-1 33.4 µM | UO-31 36.7 µM | SK-MEL-5 19 µM | HCT-116 23 µM | KM12 40.1 µM | BT-549 25.2 µM | IGROV-1 28.9 µM | SN12C 30.6 µM | DU-145 45.7 µM | RXF 393 26.9 µM | HOP-62 34.2 µM | NCI-H23 23.6 µM | T47D 64.7 µM | U-251 29.4 µM | EKVX 41.8 µM | NCI-H460 46 µM | ACHN 28.2 µM | SW-620 42.6 µM
29.1 µM: HCT-15

Cc1cc(C2(O)C=C(C(C)(C)C)C(=O)C(C(C)(C)C)=C2)c(C)cc1C1(O)C=C(C(C)(C)C)C(=O)C(C(C)(C)C)=C1
inactive: SNB-19 > 100 µM | SF-295 > 100 µM | TK-10 > 100 µM | MDA-N > 100 µM | SK-MEL-28 > 100 µM | UACC-257 > 100 µM | SK-OV-3 > 100 µM | MCF7 > 100 µM | M14 > 100 µM | SF-268 > 100 µM | MOLT-4 > 100 µM | UACC-62 > 100 µM | MDA-MB-231 > 100 µM | SF-539 > 100 µM | SNB-75 > 100 µM | NCI-H226 > 100 µM | NCI/ADR-RES > 100 µM | HT-29 > 100 µM | LOX IMVI > 100 µM | CCRF-CEM > 100 µM | NCI-H522 > 100 µM | RPMI-8226 > 100 µM | OVCAR-5 > 100 µM | Malme-3M > 100 µM | OVCAR-4 > 100 µM | OVCAR-8 > 100 µM | 786-0 > 100 µM | COLO 205 > 100 µM | A549 > 100 µM | CAKI-1 > 100 µM | UO-31 > 100 µM | K562 > 100 µM | SK-MEL-5 > 100 µM | PC-3 > 100 µM | HCT-116 > 100 µM | KM12 > 100 µM | BT-549 > 100 µM | IGROV-1 > 100 µM | SN12C > 100 µM | HL-60 > 100 µM | SK-MEL-2 > 100 µM | DU-145 > 100 µM | HOP-62 > 100 µM | NCI-H23 > 100 µM | T47D > 100 µM | U-251 > 100 µM | EKVX > 100 µM | ACHN > 100 µM | SW-620 > 100 µM | SR 17.2 µM
> 100 µM: HCT-15
